Counter-ions that a name gives are not always drawn. Like-named read-outs stand apart in the source and are kept apart here.
How the values were obtained:
Human NPY5 receptor = target: T1, Human NPY5 receptor (Homo sapiens, UniProt Q15761); experiment: Human NPY5 receptor binding assay ([125I]PYY, membrane protein); conditions: read-out: hNPY5 IC50
T1 sequence (Q15761 1-445): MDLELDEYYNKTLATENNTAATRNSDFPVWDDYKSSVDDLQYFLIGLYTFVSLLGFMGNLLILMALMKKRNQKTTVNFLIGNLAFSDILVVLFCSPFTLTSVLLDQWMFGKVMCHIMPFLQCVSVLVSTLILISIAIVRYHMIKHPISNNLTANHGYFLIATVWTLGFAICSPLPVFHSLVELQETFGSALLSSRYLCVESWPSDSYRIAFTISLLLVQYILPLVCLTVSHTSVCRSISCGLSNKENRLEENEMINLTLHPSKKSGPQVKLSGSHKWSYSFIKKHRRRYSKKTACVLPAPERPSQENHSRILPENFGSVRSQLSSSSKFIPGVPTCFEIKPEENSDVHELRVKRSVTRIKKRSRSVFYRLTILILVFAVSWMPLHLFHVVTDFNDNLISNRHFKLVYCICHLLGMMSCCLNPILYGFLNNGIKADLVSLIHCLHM
Method in brief: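 First, membrane protein, drug dilution and 75-100 pM [125I]PYY were combined in pH 7.4 Tris saline buffer containing divalent cations and 0.1% BSA. Next, samples were mixed 2 hours at room temperature. Finally, samples were filtered, washed ice-cold and counted; 1 μM PYY gave nonspecific binding.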

Rat NPY5 receptor = target: T2, Rat NPY5 receptor (Rattus norvegicus, UniProt Q63634); experiment: Rat NPY5 receptor binding assay ([125I]PYY, membrane protein)
T2 sequence (Q63634 1-445): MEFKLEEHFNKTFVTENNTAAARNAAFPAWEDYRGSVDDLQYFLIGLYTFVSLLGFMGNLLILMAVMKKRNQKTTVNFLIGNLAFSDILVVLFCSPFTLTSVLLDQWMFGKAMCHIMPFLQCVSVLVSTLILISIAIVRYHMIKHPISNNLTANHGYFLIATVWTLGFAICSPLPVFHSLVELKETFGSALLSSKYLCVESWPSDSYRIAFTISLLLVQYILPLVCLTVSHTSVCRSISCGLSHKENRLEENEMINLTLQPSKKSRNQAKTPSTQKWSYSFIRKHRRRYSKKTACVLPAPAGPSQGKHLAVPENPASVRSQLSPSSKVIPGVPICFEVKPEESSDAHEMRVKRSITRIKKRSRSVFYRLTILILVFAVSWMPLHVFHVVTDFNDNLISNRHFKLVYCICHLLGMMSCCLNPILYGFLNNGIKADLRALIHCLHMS
Procedure: C. Human and Rat NPY5 Receptor Binding Assays
Binding assays are performed on GF/C Millipore 96well plates pretreated with 0.02% polyethylenimine. The binding buffer is 25 mM Tris, 120 mM NaCl, 5 mM KCl, 1.2 mM KH2PO4, 2.5 mM CaCl2, 1.2 mM MgSO4, 0.1% BSA and 0.5 mg/ml bacitracin, pH 7.4. Samples consist of membrane protein, 75-100 pM [125I]PYY (porcine, NEN-DuPont) and drug dilution. Nonspecific binding is defined by 1 μM PYY. After a 2 hour incubation at room temperature with constant mixing, the samples are aspirated on a vacuum manifold, and rinsed with ice-cold binding buffer. The amount of radioactivity in each well is quantitated with either gamma counting or liquid scintillation.

[1] = [125I]PYY binding, read-out: rNPY5 IC50
[2] = [125I]PYY, read-out: rNPY5 IC50

| Compound | IC50 (Human NPY5 receptor; [125I]PYY binding) [nM] | IC50 (Rat NPY5 receptor; [1]) [nM] | IC50 (Human NPY5 receptor; [125I]PYY) [nM] | IC50 (Rat NPY5 receptor; [2]) [nM] | IC50 (Rat NPY5 receptor; rNPY5 IC50, [125I]PYY) [nM] |
| --- | --- | --- | --- | --- | --- |
| CC(C)(C)OC(=O)NC1CCN(CC(=O)Nc2ccc(C3CCCCC3)cc2)C1 (stereo not drawn) [Compound 194, {1-[(4-Cyclohexyl-phenylcarbamoyl)-methyl]-pyrrolidin-3-yl}-carbamic acid tert-butyl ester] | 37 | 35 | – | – | – |
| CC(C)(C)OC(=O)NC1CCN(CC(=O)Nc2ccc(C3CCCCC3)cc2)C1 (stereo not drawn) [Compound 195, {1-[(4-Cyclohexyl-phenylcarbamoyl)-methyl]-pyrrolidin-3-yl}-carbamic acid tert-butyl ester] | 26 | 26 | – | – | – |
| CNC1CCN(CC(=O)Nc2ccc(C3CCCCC3)cc2)C1 (stereo not drawn) [Compound 198, N-(4-Cyclohexyl-phenyl)-2-(3-methylamino-pyrrolidin-1-yl)-acetamide] | 1000 | 1300 | – | – | – |
| CCNC1CCN(CC(=O)Nc2ccc(C3CCCCC3)cc2)C1 (stereo not drawn) [Compound 199, N-(4-Cyclohexyl-phenyl)-2-(3-ethylamino-pyrrolidin-1-yl)-acetamide] | 820 | 2400 | – | – | – |
| O=C(CN1CCC(CO)CC1)Nc1ccc(C2CCCCC2)cc1 [Compound 200, N-(4-Cyclohexyl-phenyl)-2-(4-hydroxymethyl-piperidin-1-yl)-acetamide] | 530 | 340 | – | – | – |
| COc1cc(CCNCC(=O)Nc2ccc(C(=O)c3ccccc3)cc2)ccc1O [Compound 202, N-(4-Benzoyl-phenyl)-2-[2-(4-hydroxy-3-methoxy-phenyl)-ethylamino]-acetamide] | 58 | 53 | – | – | – |
| CNC1CCN(CC(=O)Nc2ccc(C(=O)c3ccccc3)cc2)C1 (stereo not drawn) [Compound 203, N-(4-Benzoyl-phenyl)-2-(3-methylamino-pyrrolidin-1-yl)-acetamide] | 200 | 180 | – | – | – |
| CC(C)(C)OC(=O)NC1CCN(CC(=O)Nc2ccc(C(=O)c3ccccc3)cc2)C1 (stereo not drawn) [Compound 205, {1-[(4-Benzoyl-phenylcarbamoyl)-methyl]-pyrrolidin-3-yl}-carbamic acid tert-butyl ester] | 72 | 71 | – | – | – |
| CCNC1CCN(CC(=O)Nc2ccc(C(=O)c3ccccc3)cc2)C1 (stereo not drawn) [Compound 206, N-(4-Benzoyl-phenyl)-2-(3-ethylamino-pyrrolidin-1-yl)-acetamide] | 42 | 48 | – | – | – |
| O=C(CN1CCC(NC(=O)C(F)(F)F)C1)Nc1ccc(C(=O)c2ccccc2)cc1 (stereo not drawn) [Compound 207] | 48 | 50 | – | – | – |
| N#CCNCC(=O)Nc1ccc(C(=O)c2ccccc2)cc1 [Compound 211, N-(4-Benzoyl-phenyl)-2-(cyanomethyl-amino)-acetamide] | 1300 | 1000 | – | – | – |
| O=C(CNCc1ccc(C(=O)O)cc1)Nc1ccc(C2CCCCC2)cc1 [Compound 212] | > 10000 | > 10000 | – | – | – |
| C#CC(C)(C)NCC(=O)Nc1ccc(C2CCCCC2)cc1 [Compound 213, N-(4-Cyclohexyl-phenyl)-2-(1,1-dimethyl-prop-2-ynylamino)-acetamide] | 360 | 360 | – | – | – |
| CN(C(=O)OC(C)(C)C)C1CCN(CC(=O)Nc2ccc(C3CCCCC3)cc2)C1 (stereo not drawn) [Compound 215, {1-[(4-Cyclohexyl-phenylcarbamoyl)-methyl]-pyrrolidin-3-yl)-methyl-carbamic acid tert-butyl ester] | 170 | 300 | – | – | – |
| CCCC(CO)NCC(=O)Nc1ccc(C2CCCCC2)cc1 (stereo not drawn) [Compound 216, N-(4-Cyclohexyl-phenyl)-2-(1-hydroxymethyl-butylamino)-acetamide] | 450 | > 10000 | – | – | – |
| C=CCC(NCC(=O)Nc1ccc(C2CCCCC2)cc1)C(=O)O (stereo not drawn) [Compound 220, 2-{[(4-Cyclohexyl-phenylcarbamoyl)-methyl]-amino}-pent-4-enoic acid] | 540 | 720 | – | – | – |
| CC(=O)OC1CC2CC1N(CC(=O)Nc1ccc(C3CCCCC3)cc1)C2 (stereo not drawn) [Compound 221, Acetic acid 2-[(4-cyclohexyl-phenylcarbamoyl)-methyl]-2-aza-bicyclo[2.2.1]hept-6-yl ester] | 29 | 29 | – | – | – |

| Compound | IC50 (Human NPY5 receptor; [125I]PYY binding) [nM] | IC50 (Rat NPY5 receptor; [1]) [nM] | IC50 (Human NPY5 receptor; [125I]PYY) [nM] | IC50 (Rat NPY5 receptor; [2]) [nM] | IC50 (Rat NPY5 receptor; rNPY5 IC50, [125I]PYY) [nM] |
| --- | --- | --- | --- | --- | --- |
| O=C(CNCc1ccc(C(=O)O)cc1)Nc1ccc(C(=O)c2ccccc2)cc1 [Compound 222, 4-({[(4-Benzoyl-phenylcarbamoyl)-methyl]-amino}-methyl)-benzoic acid] | > 10000 | > 10000 | – | – | – |
| C#CC(C)(C)NCC(=O)Nc1ccc(C(=O)c2ccccc2)cc1 [Compound 223, N-(4-Benzoyl-phenyl)-2-(1,1-dimethyl-prop-2-ynylamino)-acetamide] | 540 | 1400 | – | – | – |
| CN(C(=O)OC(C)(C)C)C1CCN(CC(=O)Nc2ccc(C(=O)c3ccccc3)cc2)C1 (stereo not drawn) [Compound 225, {1-[(4-Benzoyl-phenylcarbamoyl)-methyl]-pyrrolidin-3-yl)-methyl-carbamic acid tert-butyl ester] | 320 | 190 | – | – | – |
| C=CCC(NCC(=O)Nc1ccc(C(=O)c2ccccc2)cc1)C(=O)O (stereo not drawn) [Compound 230, 2-{[(4-Benzoyl-phenylcarbamoyl)-methyl]-amino}-pent-4-enoic acid] | 810 | 2500 | – | – | – |
| CC(=O)OC1CC2CC1N(CC(=O)Nc1ccc(C(=O)c3ccccc3)cc1)C2 (stereo not drawn) [Compound 231, Acetic acid 2-[(4-benzoyl-phenylcarbamoyl)-methyl]-2-aza-bicyclo[2.2.1]hept-6-yl ester] | 67 | 74 | – | – | – |
| O=C(CNCCCn1ccnc1)Nc1ccc(C2CCCCC2)cc1 [Compound 234, N-(4-Cyclohexyl-phenyl)-2-(3-imidazol-1-yl-propylamino)-acetamide] | 950 | 610 | – | – | – |
| C=CCNCC(=O)Nc1ccc(C2CCCCC2)cc1 [Compound 235, 2-Allylamino-N-(4-cyclohexyl-phenyl)-acetamide] | 1600 | 3800 | – | – | – |
| CC(=CC#N)NCC(=O)Nc1ccc(C2CCCCC2)cc1 [Compound 237, 2-(2-Cyano-1-methyl-vinylamino)-N-(4-cyclohexyl-phenyl)-acetamide] | 4400 | 1000 | – | – | – |
| COC(=O)C=C(C)NCC(=O)Nc1ccc(C2CCCCC2)cc1 [Compound 238, 3-{[(4-Cyclohexyl-phenylcarbamoyl)-methyl]-amino}-but-2-enoic acid methyl ester] | 650 | 550 | – | – | – |
| COC(CNCC(=O)Nc1ccc(C2CCCCC2)cc1)OC [Compound 241, N-(4-Cyclohexyl-phenyl)-2-(2,2-dimethoxy-ethylamino)-acetamide] | 280 | 230 | – | – | – |
| O=C(CNC1CCC1)Nc1ccc(C(=O)c2ccccc2)cc1 [Compound 242, N-(4-Benzoyl-phenyl)-2-cyclobutylamino-acetamide] | 4400 | 5000 | – | – | – |
| O=C(CNCCCn1ccnc1)Nc1ccc(C(=O)c2ccccc2)cc1 [Compound 244, N-(4-Benzoyl-phenyl)-2-(3-imidazol-1-yl-propylamino)-acetamide] | 670 | 3000 | – | – | – |
| CCN(CC)CCCC(C)NCC(=O)Nc1ccc(C(=O)c2ccccc2)cc1 (stereo not drawn) [Compound 246, N-(4-Benzoyl-phenyl)-2-(4-diethylamino-1-methyl-butylamino)-acetamide] | – | – | 1600 | 1700 | – |
| O=C(CN1CCC(O)(Cc2ccccc2)CC1)Nc1ccc(-c2ccccc2)cc1 [Compound 315, 2-(4-Benzyl-4-hydroxy-piperidin-1-yl)-N-biphenyl-4-yl-acetamide; hydrochloride] | – | – | 800 | 2000 | – |
| CCC(=O)C1(c2ccccc2)CCN(CC(=O)Nc2ccc(-c3ccccc3)cc2)CC1 [Compound 317, N-Biphenyl-4-yl-2-(4-phenyl-4-propionyl-piperidin-1-yl)-acetamide: hydrochloride] | – | – | 10 | – | 11 |
| N-(4-Cyclohexyl-phenyl)-2-(3-ethylamino-pyrrolidin-1-yl)-acetamide [Compound 196] | 43 | 49 | – | – | – |

— US6410792B1, “Amide derivatives and methods for using the same as selective neuropeptide Y receptor antagonists” (Bayer Corporation, priority 1997, dated 2002)
